System: PNC in PC3M cells
Test: PNC disassembly assay in PC3M cells
Type: cell-based
Details: PC3M (PTB-GFP) cells
Description: The PNC disassembly assay has been previously described. […] Cells were fixed with […] for 10 min at room temperature. […] Confocal images were obtained using Opera Phoenix (PerkinElmer, Waltham, MA) and a 20× objective lens.
To examine whether measured intratumor metarrestin concentrations measured in PK studies track with intracellular metarrestin concentration, we first decided to synthesize a fluorophore conjugated analog of metarrestin. Structure activity relationship studies around the structure of metarrestin were conducted in a high throughput assay that measured in dose dependence the ability of compounds to reducing PNC prevalence in PC3M cells. […] This analog was chemically conjugated to the fluorophore boron-dipyrromethene (BODIPY®) to track the disassembly of the PNC in PC3M cancer cells by confocal microscopy (Suppl. Figure 2). […] Next, to examine cellular metarrestin levels in relation to extracellular concentrations, we exposed KPC and PC3M cells at 1 and 10 µM concentrations of metarrestin and harvested cells at different timepoints.

- IC50: 89 nM
SMILES: N=c1c2c(-c3ccccc3)c(-c3ccccc3)n(Cc3ccccc3)c2ncn1C1CCOCC1 [NCGC00244845]

Reference: article PMC6267684, “Pharmacokinetic evaluation of the PNC disassembler metarrestin in wild-type and Pdx1-Cre;LSL-Kras^G12D/+;Tp53^R172H/+ (KPC) mice, a genetically engineered model of pancreatic cancer” (Cancer Chemotherapy and Pharmacology, 2018)
